Reference: US20130315843A1, “COMPOSITION FOR REDUCTION OF TRPA1 AND TRPV1 SENSATIONS” (priority 2012, published 2013)
Where two headings read alike, the source gives them in different places.

Assays:
human TRPV1 = human TRPV1 (Homo sapiens, UniProt Q8NER1); test: FLIPR Ca2+ assay, reduction of L-Menthol activation of TRPV1; details: for inhibition at 100 µM: read-out: % Reduction of L-Menthol TRPV1 Activation
Description: To determine whether TRPV1 was activated, the intracellular calcium ion (Ca^+2) levels from cells transfected with the TRPV1 receptor gene was measured. HEK-239 cells stably transfected with human TRPV1 were grown in 15 ml growth medium [high glucose DMEM (Dulbecco's Modification of Eagle's Medium) supplemented with 10% FBS (fetal bovine serum), 100 g/ml Penicillin/streptomycin, 100 g/ml G418] in a 75 Cm2 flask for 3 days at 33° C. in a mammalian cell culture incubator set at 5% CO2. Cells were detached with addition of 10 ml of PBS (phosphate buffered saline) by hand shaking gently. Cells were transferred to a 50 ml tube and centrifuged at 850 rpm for 3 minutes to remove PBS. After centrifugation, a pellet of cells formed in the bottom of the tube separating them from the supernatant solution. The supernatant was discarded and the cell pellet suspended in 1 ml of fresh growth medium to which 5 μl (12.5 g) of Fluo-4 AM (Molecular Probes, Inc., Eugene, Oreg.) calcium indicator was added and incubated for 30 minutes with gentle shaking.
The pelleted cells were re-suspended in 10 ml assay buffer and 90 μl aliquots (˜50,000 cells) per well delivered to a 96-well assay plate containing 10 μl of test compounds (1 mM in assay buffer, final concentration 100 μM) or buffer control and incubated at room temperature for 30 minutes. After 30 minutes, the plate was placed into a fluorometric imaging plate reader (FLIPR384 from Molecular Devices) and basal fluorescence recorded (excitation wave length 488 nm and emission wave length 510 nm). Then 20 μl of the compound being tested as a TRPV1 receptor activator was added and fluorescence recorded. […] It may be no difference (no effect), or negative (means antagonist or desensitizer) or positive (enhancer, also known as positive allosteric modulator). […] To determine if a compound was an antagonist or a desensitizer, the direct effect of a test compound was determined. For determining the direct effect of test compounds on TRPV1, 100 μl aliquots (˜50,000 cells) of cells prepared as described above were delivered to a 96-well assay plate and basal fluorescence recorded as noted above. Then 20 μl of the compound being tested as a TRPV1 receptor activator was added and fluorescence recorded. If any increase in fluorescence over background was noted, then the compound was considered an agonist. The agonist activity was expressed relative to that observed with a benchmark agonist such as 350 nM Capsaicin for TRPV1.
100 μM of antagonist was tested against 1 mM of L-Menthol to determine the level of reduced TRPV1 receptor activation by L-Menthol. Each antagonist compound was run with 1 mM of L-Menthol as a control and the antagonist activity of each compound was determined by comparing the Ca^2+ levels of the control with the antagonist compound being tested.

human TRPA1 = human TRPA1 (Homo sapiens, UniProt O75762); test: FLIPR Ca2+ assay, reduction of hydrogen peroxide activation of TRPA1; type: cell-based; parameters: expressed in transfected cells; details: for inhibition at 100 µM / inhibition at 400 µM: read-out: % Reduction of Hydrogen Peroxide TRPA1 Activation
Description: After centrifugation, a pellet of cells was formed in the bottom of the tube separating them from the supernatant solution.
The pelleted cells were re-suspended in 10 ml assay buffer and 90 μl aliquots (˜50,000 cells) per well delivered to a 96-well assay plate containing 10 μl of test compounds ([…]) or buffer control and incubated at room temperature for 30 minutes.

[1] = antagonist 100 μM against 1 mM L-Menthol
[2] = 100 μM antagonist vs 500 μM hydrogen peroxide
[3] = compound 100 μM against 200 μM hydrogen peroxide, Sets 1-4
[4] = 400 μM antagonist vs 500 μM hydrogen peroxide
[5] = antagonist 400 μM against 200 μM hydrogen peroxide

Chain of human TRPA1 (O75762 whole entry): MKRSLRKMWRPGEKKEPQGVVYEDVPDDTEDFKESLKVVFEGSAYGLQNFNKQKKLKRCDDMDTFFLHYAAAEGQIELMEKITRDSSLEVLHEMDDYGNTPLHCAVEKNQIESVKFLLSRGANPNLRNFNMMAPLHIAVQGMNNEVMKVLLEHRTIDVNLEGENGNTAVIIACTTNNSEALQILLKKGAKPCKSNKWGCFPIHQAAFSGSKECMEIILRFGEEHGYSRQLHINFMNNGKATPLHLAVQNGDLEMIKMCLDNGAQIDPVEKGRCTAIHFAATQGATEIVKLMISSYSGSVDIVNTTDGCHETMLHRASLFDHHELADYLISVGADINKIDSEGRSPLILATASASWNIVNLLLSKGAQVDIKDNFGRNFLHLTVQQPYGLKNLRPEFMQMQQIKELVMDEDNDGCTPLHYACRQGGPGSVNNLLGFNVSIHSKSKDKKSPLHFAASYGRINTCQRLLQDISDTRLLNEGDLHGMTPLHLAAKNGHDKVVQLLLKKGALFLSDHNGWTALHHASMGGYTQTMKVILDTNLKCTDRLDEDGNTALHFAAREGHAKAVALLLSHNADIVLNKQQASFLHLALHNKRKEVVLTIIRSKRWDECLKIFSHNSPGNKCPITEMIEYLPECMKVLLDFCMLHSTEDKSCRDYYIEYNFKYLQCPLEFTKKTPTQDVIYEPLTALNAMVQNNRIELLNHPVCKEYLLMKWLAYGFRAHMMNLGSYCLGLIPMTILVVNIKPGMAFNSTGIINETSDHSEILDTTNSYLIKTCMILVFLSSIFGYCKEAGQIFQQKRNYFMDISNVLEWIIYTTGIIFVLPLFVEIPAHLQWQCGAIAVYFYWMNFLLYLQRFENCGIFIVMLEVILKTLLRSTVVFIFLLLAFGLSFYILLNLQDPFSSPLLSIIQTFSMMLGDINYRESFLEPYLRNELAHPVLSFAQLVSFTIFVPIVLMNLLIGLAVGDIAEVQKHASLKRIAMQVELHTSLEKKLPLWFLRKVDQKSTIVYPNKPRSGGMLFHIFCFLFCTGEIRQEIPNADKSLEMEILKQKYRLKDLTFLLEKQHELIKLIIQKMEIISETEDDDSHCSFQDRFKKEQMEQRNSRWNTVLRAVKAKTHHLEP
Chain of human TRPV1 (Q8NER1 whole entry): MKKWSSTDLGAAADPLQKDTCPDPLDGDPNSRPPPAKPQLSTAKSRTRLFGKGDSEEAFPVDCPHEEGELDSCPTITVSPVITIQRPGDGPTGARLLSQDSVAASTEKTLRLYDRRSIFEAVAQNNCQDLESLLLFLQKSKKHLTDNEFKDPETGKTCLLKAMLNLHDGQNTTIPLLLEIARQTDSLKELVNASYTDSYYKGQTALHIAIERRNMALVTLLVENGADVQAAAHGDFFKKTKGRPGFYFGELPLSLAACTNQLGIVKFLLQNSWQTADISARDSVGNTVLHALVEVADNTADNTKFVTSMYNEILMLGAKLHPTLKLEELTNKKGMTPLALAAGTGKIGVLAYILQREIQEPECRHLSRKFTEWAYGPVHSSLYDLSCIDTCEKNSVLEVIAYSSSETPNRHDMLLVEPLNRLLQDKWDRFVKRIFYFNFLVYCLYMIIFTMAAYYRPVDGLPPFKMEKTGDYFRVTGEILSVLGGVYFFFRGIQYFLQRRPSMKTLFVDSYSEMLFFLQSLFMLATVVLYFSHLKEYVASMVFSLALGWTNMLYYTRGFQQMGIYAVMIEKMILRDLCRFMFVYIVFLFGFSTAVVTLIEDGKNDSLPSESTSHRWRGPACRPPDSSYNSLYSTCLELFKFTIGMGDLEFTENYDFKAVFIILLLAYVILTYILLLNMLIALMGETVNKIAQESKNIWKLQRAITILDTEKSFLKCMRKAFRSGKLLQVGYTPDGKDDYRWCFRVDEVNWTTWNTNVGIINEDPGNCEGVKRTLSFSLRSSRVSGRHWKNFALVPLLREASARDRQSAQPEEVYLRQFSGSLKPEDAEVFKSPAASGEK

Block of hydrogen peroxide activation of TRPA1 (human TRPA1; [2])	Average Ca++ Counts (human TRPA1; [3]) [Counts]	inhibition at 100 µM (human TRPA1; [3]) [%]	Compound	also measured
			CCCCOC(=O)C(C)CC (stereo not drawn) [butyl 2-methylbutyrate]	Average Ca2+ Counts (human TRPV1; [1]): 1233.7 Counts; inhibition at 100 µM (human TRPV1): 34.9%
			CC(=O)c1cccn1C [2-acetyl-1-methylpyrrole]	Average Ca2+ Counts (human TRPV1; [1]): 1254.0 Counts; inhibition at 100 µM (human TRPV1): 33.9%
			d-(−)-lactic acid	% Reduction of L-Menthol TRPV1 Activation (human TRPV1; [1]): 41.3%; Average Ca2+ Counts (human TRPV1; [1]): 1093.7 Counts
			CCC(C)C1CCCCC1=O (stereo not drawn) [2-sec.-butylcyclohexanone]	Average Ca2+ Counts (human TRPV1; [1]): 1352.3 Counts; inhibition at 100 µM (human TRPV1): 29.4%
			Cc1ccc(C(C)C)c(O)c1 [thymol]	Average Ca2+ Counts (human TRPV1; [1]): 1331.3 Counts; inhibition at 100 µM (human TRPV1): 30.3%
			COc1ccc(C(C)=O)cc1 [4′-methoxyacetophenone]	Average Ca2+ Counts (human TRPV1; [1]): 1162.0 Counts; inhibition at 100 µM (human TRPV1): 38.2%
			C/C=C/C(=O)OCC/C=C\CC [crotonic acid cis-3-hexen-1-yl ester]	Average Ca2+ Counts (human TRPV1; [1]): 1150.0 Counts; inhibition at 100 µM (human TRPV1): 38.7%
			CC(O)C(C)S (stereo not drawn) [3-mercapto-2-butanol]	Average Ca2+ Counts (human TRPV1; [1]): 1008.3 Counts; inhibition at 100 µM (human TRPV1): 45.3%
			CCCCC/C=C/C(=O)OC [methyl trans-2-octenoate]	Average Ca2+ Counts (human TRPV1; [1]): 1538.7 Counts; inhibition at 100 µM (human TRPV1): 20.7%
			COc1ccc(C)cc1C [2,4-dimethylanisole]	Average Ca2+ Counts (human TRPV1; [1]): 1255.3 Counts; inhibition at 100 µM (human TRPV1): 33.9%
			CCC(O)c1ccccc1 (stereo not drawn) [phenylpropanol (1-phenyl 1-propanol), 1-phenyl 1-propanol]	Average Ca2+ Counts (human TRPV1; [1]): 1218.3 Counts; inhibition at 100 µM (human TRPV1): 35.6%
			C[C@@H](CO)c1ccccc1 [(r)-(+)-2-phenyl-1-propanol]	Average Ca2+ Counts (human TRPV1; [1]): 1414.0 Counts; inhibition at 100 µM (human TRPV1): 26.5%
BLOCK ONLY H2O2/TRPA1	4960.5	53.2	CCCCC(CC)CO (stereo not drawn) [2-ethyl-1-hexanol]	
			CC1=CC(=O)[C@@H]2C[C@H]1C2(C)C (racemic) [dl-verbenone]	% Reduction of Hydrogen Peroxide TRPA1 Activation (human TRPA1): 54.1%; Average Ca++ Counts (human TRPA1): 3231.0 Counts; Block of hydrogen peroxide activation of TRPA1 (human TRPA1): BLOCK ONLY H2O2/TRPA1
			CCCCCCC1CCCC(=O)O1 (stereo not drawn) [Undecanoic-δ-Lactone]	% Reduction of Hydrogen Peroxide TRPA1 Activation (human TRPA1): −42%
			CC(O)C(=O)NCCO (stereo not drawn) [N-(2-Hydroxyethyl) lactamide]	Block of hydrogen peroxide activation of TRPA1 (human TRPA1; [4]): BLOCK ONLY H2O2/TRPA1; inhibition at 400 µM (human TRPA1; [5]): 65%
	3322.5	43.5	CSCCC(C)=O [4-methylthio-2-butanone]	
BLOCK ONLY H2O2/TRPA1	2860.5	59.4	C=C(C)OC(C)=O [acetic acid isopropenyl ester]	
	3424.5	51.4	O=Cc1ccc(O)cc1 [4-hydroxybenzaldehyde]	
			CCCC(CCOC(C)=O)SC(C)=O (stereo not drawn) [3-acetylsulfanylhexyl acetate]	Block of hydrogen peroxide activation of TRPA1 (human TRPA1; [4]): BLOCK ONLY H2O2/TRPA1; inhibition at 400 µM (human TRPA1; [5]): 58%
BLOCK ONLY H2O2/TRPA1	3208.0	54.5	CCC(C)CS (stereo not drawn) [2-methyl-1-butanethiol]	
BLOCK ONLY H2O2/TRPA1	3049.0	56.7	CCCCCCCCCC(C)O (stereo not drawn) [2-undecanol]	
BLOCK ONLY H2O2/TRPA1	3357.5	52.3	CCCCCC(=O)CCCCC [6-undecanone]	
BLOCK ONLY H2O2/TRPA1	3291.5	53.3	CC(C)CC(=O)OCCc1ccccc1 [phenylethyl isovalerate]	
			Cc1ccc(C(C)(C)O)cc1 [p-cymen-8-ol]	% Reduction of Hydrogen Peroxide TRPA1 Activation (human TRPA1): 50.6%; Average Ca++ Counts (human TRPA1): 3476.5 Counts; Block of hydrogen peroxide activation of TRPA1 (human TRPA1): BLOCK ONLY H2O2/TRPA1
			C[C@H]1CC[C@]2(O1)C(C)(C)CCC[C@]2(C)O [Hydroxydihydrotheaspirane, 1-Oxaspiro[4.5]decan-6-ol, 2,6,10,10-tetramethyl-, (2S,5S,6S)-6-]	% Reduction of Hydrogen Peroxide TRPA1 Activation (human TRPA1; [5]): 57%
BLOCK ONLY H2O2/TRPA1	4994.0	52.9	CCCCC(=O)C(C)C [2-methyl-3-heptanone]	

Block of hydrogen peroxide activation of TRPA1 (human TRPA1; [2])	Average Ca++ Counts (human TRPA1; [3]) [Counts]	inhibition at 100 µM (human TRPA1; [3]) [%]	Compound	also measured
BLOCK ONLY H2O2/TRPA1	2761.5	60.8	CC12CCC(C1)C(C)(C)C2=O (stereo not drawn) [fenchone]	
BLOCK ONLY H2O2/TRPA1	5157.0	51.3	CCCCOC(=O)C(C)O (stereo not drawn) [butyl lactate]	
BLOCK ONLY H2O2/TRPA1	4725.5	55.4	CCCC=O [butyraldehyde]	
BLOCK ONLY H2O2/TRPA1	3124.0	55.6	CC1=CCC(C(C)C)=CC1 [gamma-terpinene]	
BLOCK ONLY H2O2/TRPA1	2824.0	59.9	CC(=O)C(=O)OCCC(C)C [isoamyl pyruvate]	
			CCCCCCCC1CC(C)OC1=O (stereo not drawn) [3-Heptyldihydro-5-methyl-2(3H)-furanone]	Block of hydrogen peroxide activation of TRPA1 (human TRPA1; [4]): BLOCK ONLY H2O2/TRPA1; inhibition at 400 µM (human TRPA1; [5]): 59%
			Cc1ccc(C(C)C)cc1O [carvacrol]	Average Ca++ Counts (human TRPA1): 3464.5 Counts; inhibition at 100 µM (human TRPA1): 50.8%
BLOCK ONLY H2O2/TRPA1	2862.0	59.4	CCCCCC(=O)OC(C)C [isopropyl hexanoate]	
			CCCCO [n-butyl alcohol]	% Reduction of Hydrogen Peroxide TRPA1 Activation (human TRPA1): 57.3%; Average Ca++ Counts (human TRPA1): 3009.0 Counts; Block of hydrogen peroxide activation of TRPA1 (human TRPA1): BLOCK ONLY H2O2/TRPA1
BLOCK ONLY H2O2/TRPA1	3809.0	56.3	CC=C(C=O)c1ccccc1 [2-phenyl-2-butenal]	
BLOCK ONLY H2O2/TRPA1	5664.5	46.5	CCCCCCO [1-hexanol]	
BLOCK ONLY H2O2/TRPA1	3363.5	52.2	CCCCC/C=C\C/C=C\CCCCCCCC(=O)OC [methyl linoleate]	
			CC(C)C=C(C=O)c1ccccc1 (mixture of isomers) [4-Methyl-2-phenyl-2 Pentenal]	inhibition at 400 µM (human TRPA1; [5]): 54%
BLOCK ONLY H2O2/TRPA1	3197.0	54.6	CCOc1nccnc1C [2-methyl-3-ethoxypyrazine]	
BLOCK ONLY H2O2/TRPA1	5244.5	50.5	OCc1ccccc1 [phenyl-methanol]	
			CCCCC(=O)OC1CC2CCC1(C)C2(C)C (stereo not drawn) [Bornyl Valerate]	Block of hydrogen peroxide activation of TRPA1 (human TRPA1; [4]): BLOCK ONLY H2O2/TRPA1; inhibition at 400 µM (human TRPA1; [5]): 52%
BLOCK ONLY H2O2/TRPA1	3064.5	56.5	CCCCCCCC(C)O (stereo not drawn) [2-nonanol]	
BLOCK ONLY H2O2/TRPA1	3778.0	56.7	CC(C)CCO [isopentyl alcohol]	
BLOCK ONLY H2O2/TRPA1	3246.5	53.9	CC1CCC(=O)C1=O (stereo not drawn) [3-methyl-1,2-cyclopentanedione]	
			CCCC1CC(=O)C=C(C)C1 (stereo not drawn)	Block of hydrogen peroxide activation of TRPA1 (human TRPA1; [4]): BLOCK ONLY H2O2/TRPA1
BLOCK ONLY H2O2/TRPA1	2385.0	59.4	C/C=C(\C)C(=O)OCc1ccccc1 [benzyl tiglate]	
BLOCK ONLY H2O2/TRPA1	2937.0	58.3	CC(=O)c1ccc(C)o1 [2-acetyl-5-methylfuran]	
	5168.0	51.2	CC(C)CCCC(C)CCO (stereo not drawn) [3,7-dimethyl-1-octanol, 95%, 3,7-dimethyl-1-octanol]	
BLOCK ONLY H2O2/TRPA1	3284.5	53.4	O=C(O)c1cccc(O)c1 [3-hydroxybenzoic acid]	
BLOCK ONLY H2O2/TRPA1	2253.5	68	CCC(C)(O)CCc1ccccc1 (stereo not drawn) [ethyl methyl beta-phenylethyl carbinol]	
BLOCK ONLY H2O2/TRPA1	3381.5	52	CCCC(=O)CC [3-hexanone]	

Compound	Block of hydrogen peroxide activation of TRPA1 (human TRPA1; [2])	Average Ca++ Counts (human TRPA1; [3]) [Counts]	inhibition at 100 µM (human TRPA1; [3]) [%]	also measured
CC(=O)OCC(C)(C)Cc1ccccc1	BLOCK ONLY H2O2/TRPA1			
CCCCCCC1(C)CCC(=O)O1 (stereo not drawn) [γ-Methyl Decalactone]	BLOCK ONLY H2O2/TRPA1			% Reduction of Hydrogen Peroxide TRPA1 Activation (human TRPA1; antagonist 100 μM against 200 μM hydrogen peroxide): 48%
C=C(C)c1ccc(C)cc1 [Alpha-p-dimethylstyrene]	BLOCK ONLY H2O2/TRPA1			
